In PMC8286831, “Identifying SARS-CoV-2 antiviral compounds by screening for small molecule inhibitors of nsp13 helicase” (Biochemical Journal, 2021):
Several values for one entry are separate records, joined by “and”; a condition that tells them apart may be missing. Equal values may be shown once. Entries after “also recorded” stand apart in the source; their conditions may differ. Read-outs that look alike come from different tables or passages of the source.

How the values were obtained:
[1] = target: T1, SARS-CoV-2 nsp13 helicase (Severe acute respiratory syndrome coronavirus 2, UniProt P0DTD1); assay: biochemical; type: biochemical
[2] = target: T2, SARS-CoV-2 RdRp holoenzyme (Severe acute respiratory syndrome coronavirus 2, UniProt P0DTD1); assay: FRET-based RdRp strand displacement assay; type: biochemical
T2 construct: (Sf nsp12-3F/7L8 preincubated with Sf 7H8 at a 1:3 ratio); 3F (3xFlag) (C); made in house; host or cells: 'Sf', read as Spodoptera frugiperda insect cells (my inference from the prefix); details are in Bertolin et al

[3] = target: T1, SARS-CoV-2 nsp13 helicase; type: biochemical
[4] = system: SARS-CoV-2; assay: microbe, parasite or virus in culture; type: cell-based; details: for EC50: read-out: EC50 viral inhibition
[5] = RNA (nsp13 substrate), 0.3 mM ATP, 0.02% Tween-20 in RdRp assay buffer, read-out: IC50 nsp13
[6] = read-out: IC50 + 0.02% Tween-20
[7] = RNA (RdRp substrate), 0.3 mM each NTP, 0.02% Tween-20 in RdRp assay buffer, read-out: IC50 RdRp
[8] = read-out: IC50 + 0.01% Triton X-100
[9] = IC50 0.02% Tween-20 + (presence)
[10] = IC50 0.02% Tween-20 − (absence)
[11] = RNA (nsp13 substrate), 0.3 mM ATP, 0.02% Tween-20 in RdRp assay buffer
[12] = RNA (RdRp substrate), 0.3 mM each NTP, 0.02% Tween-20 in RdRp assay buffer
[13] = presence or absence of non-ionic detergent
[14] = Severe acute respiratory syndrome coronavirus 2, Vero C1008, 22 h
[15] = read-out: IC50 0.02% Tween-20 + (presence)
[16] = read-out: IC50 0.02% Tween-20 − (absence)

Structure (SMILES) | IC50 [1, 5] | IC50 [1, 6] | IC50 ([1]; read-out: IC50 No detergent) | IC50 [2, 7] | inhibition of duplex unwinding in gel-based assay [3] | IC50 ([1]; IC50 No detergent) | IC50 ([1]; IC50 + 0.02% Tween-20) | IC50 RdRp [2, 12] | further results
Cc1cc(-c2ccc(N=Nc3c(S(=O)(=O)[O-])cc4cc(S(=O)(=O)[O-])cc(N)c4c3O)c(C)c2)ccc1N=Nc1c(S(=O)(=O)[O-])cc2cc(S(=O)(=O)[O-])cc(N)c2c1O.[Na+].[Na+].[Na+].[Na+] [Diphenyl Blue] | 4 µM | 4.7 µM | 5.6 µM | 5 µM | clearly reduced the generation of single-stranded Cy3 strand |  |  |  | 
Cc1cc(-c2ccc(/N=N/c3ccc4c(S(=O)(=O)O)cc(S(=O)(=O)O)c(N)c4c3O)c(C)c2)ccc1/N=N/c1ccc2c(S(=O)(=O)O)cc(S(=O)(=O)O)c(N)c2c1O [Evans Blue] | 1.5 µM |  |  |  | clearly reduced the generation of single-stranded Cy3 strand | 1.2 µM |  |  | 
NC(=S)N/N=C/c1coc2ccccc2c1=O.[Cl][Cu][Cl] [FPA 124] |  | 8.4 µM | 8.5 µM |  | clearly reduced the generation of single-stranded Cy3 strand |  |  |  | nsp13 inhibition and detergent sensitivity [1]: no detergent sensitivity; also recorded: largely insensitive to detergent addition; IC50 [1, 8]: 8.9 µM; IC50 ([1]; read-out: IC50 -Triton X-100): 9.1 µM; IC50 ([1]; read-out: IC50 against nsp13 in vitro): ~9 µM; EC50 [4]: 14 µM and ~14 µM
COc1cc(C(=O)O)ccc1NC(=O)[C@@H]1N[C@@H](CC(C)(C)C)[C@](C#N)(c2ccc(Cl)cc2F)[C@H]1c1cccc(Cl)c1F [Idasanutlin] | 19 µM |  |  | 36 µM |  |  |  |  | IC50 [1, 9]: 11 µM; IC50 [1, 10]: 2.3 µM
Nc1nc2c(c(=O)[nH]1)N(C=O)C(CNc1ccc(C(=O)N[C@@H](CCC(=O)O)C(=O)O)cc1)CN2 (stereo partly drawn) [Leucovorin Calcium] |  |  |  |  |  | > 250 µM | > 250 µM | No inhibition | IC50 nsp13 [1, 11]: No inhibition
Cc1ccc(F)c(NC(=O)Nc2ccc(-c3cccc4[nH]nc(N)c34)cc2)c1 [Linifanib/ABT-869, Linifanib] |  |  |  |  |  | 26 µM | 230 µM | No inhibition | IC50 nsp13 [1, 11]: No inhibition
CCCCC/C=C\C/C=C\CCCCCCCC(=O)O [Linoleic acid] |  |  |  |  |  | 11 µM | 38 µM | No inhibition | IC50 [1, 9]: 36 µM; IC50 [1, 10]: 4.3 µM; IC50 nsp13 [1, 11]: No inhibition; nsp13 inhibition and detergent sensitivity [1, 13]: strong sensitivity to detergents
O=c1c(O)c(-c2cc(O)c(O)c(O)c2)oc2cc(O)cc(O)c12 [Myricetin] |  |  |  |  | inhibited nsp13 with less efficiency |  |  |  | nsp13 inhibition and detergent sensitivity [1]: clear inhibition only in the absence of detergent; EC50 [4, 14]: 32 µM; EC50 [4]: 31.6 µM
O=C(Nc1cccc(C(=O)Nc2ccc(S(=O)(=O)[O-])c3cc(S(=O)(=O)[O-])cc(S(=O)(=O)[O-])c23)c1)Nc1cccc(C(=O)Nc2ccc(S(=O)(=O)[O-])c3cc(S(=O)(=O)[O-])cc(S(=O)(=O)[O-])c23)c1.[Na+].[Na+].[Na+].[Na+].[Na+].[Na+] [NF 023] | 0.7 µM | 0.92 µM |  |  | clearly reduced the generation of single-stranded Cy3 strand |  |  |  | nsp13 inhibition and detergent sensitivity [1, 13]: largely insensitive to detergent addition; IC50 [1, 15]: 0.64 µM; IC50 [1, 16]: 0.67 µM; IC50 [1, 8]: 0.51 µM; IC50 ([1]; read-out: IC50 -Triton X-100): 0.33 µM
CC1(C)CCC(c2ccc(Cl)cc2)=C(CN2CCN(c3ccc(C(=O)NS(=O)(=O)c4ccc(N[C@H](CCN5CCOCC5)CSc5ccccc5)c(S(=O)(=O)C(F)(F)F)c4)cc3)CC2)C1 [Navitoclax] | > 100 µM |  |  | 92 µM |  | 1.2 µM | > 250 µM |  | IC50 [1, 9]: > 250 µM; IC50 [1, 10]: 0.74 µM; IC50 ([1]; IC50 + 0.01% Triton X-100): 7.3 µM; IC50 ([1]; IC50 -Triton X-100): 2.2 µM; nsp13 inhibition and detergent sensitivity [1, 13]: strong sensitivity to detergents
CCCCCCCC/C=C\CCCCCCCC(=O)O [Oleic acid] |  |  |  |  |  | 6.8 µM | 58 µM | No inhibition | IC50 [1, 9]: 117 µM; IC50 [1, 10]: 14 µM; IC50 nsp13 [1, 11]: No inhibition
Cc1nc(N=Nc2cc(S(=O)(=O)[O-])c3cc([N+](=O)[O-])cc(S(=O)(=O)[O-])c3c2)c(COP(=O)([O-])[O-])c(C=O)c1O.[Na+].[Na+].[Na+].[Na+] [PPNDS] | 2.2 µM | 1.6 µM | 2 µM | 0.7 µM | clearly reduced the generation of single-stranded Cy3 strand |  |  |  | 
COc1cc(C(N)=O)ccc1NC(=O)[C@@H]1N[C@@H](CC(C)(C)C)[C@@]2(C(=O)Nc3cc(Cl)ccc32)[C@H]1c1cccc(Cl)c1F [RO8994] |  | > 250 µM | 2.9 µM |  |  |  |  | No inhibition | IC50 nsp13 [1]: No inhibition
CCC(CC)COC(=O)[C@H](C)N[P@](=O)(OC[C@H]1O[C@@](C#N)(c2ccc3c(N)ncnn23)[C@H](O)[C@@H]1O)Oc1ccccc1 [Remdesivir] |  |  |  |  |  |  |  |  | inhibition at 1 µM ([4]; Severe acute respiratory syndrome coronavirus 2, Vero C1008, 1 µM remdesivir alone, Vero E6 cells, read-out: inhibition of viral infection): < 20%
COc1cccc(NC(=O)/C=C/c2ccc(Cl)cc2)c1 [SB-366791] |  | > 250 µM | > 250 µM |  |  |  |  | No inhibition | IC50 nsp13 [1, 11]: No inhibition
C=CCn1c(CSc2ccccc2[N+](=O)[O-])n[nH]c1=S [SSYA10-001] |  | 28 µM | 7.5 µM |  | inhibited nsp13 with less efficiency |  |  |  | nsp13 inhibition and detergent sensitivity [1]: moderate sensitivity to detergent; IC50 [1, 8]: 21 µM; IC50 ([1]; read-out: IC50 -Triton X-100): 14 µM; EC50 [4]: 81 µM and 80.5 µM
Cc1ccc(C(=O)Nc2ccc(S(=O)(=O)O)c3cc(S(=O)(=O)O)cc(S(=O)(=O)O)c23)cc1NC(=O)c1cccc(NC(=O)Nc2cccc(C(=O)Nc3cc(C(=O)Nc4ccc(S(=O)(=O)O)c5cc(S(=O)(=O)O)cc(S(=O)(=O)O)c45)ccc3C)c2)c1 [Suramin] |  |  |  | 0.5 µM | clearly reduced the generation of single-stranded Cy3 strand | 0.94 µM |  |  | nsp13 inhibition and detergent sensitivity [1]: largely insensitive to detergent addition; IC50 [1, 9]: 1.6 µM; IC50 [1, 10]: 0.74 µM; IC50 ([1]; IC50 + 0.01% Triton X-100): 1.6 µM; IC50 ([1]; IC50 -Triton X-100): 1.3 µM; IC50 ([1]; IC50 against nsp13 in vitro): ~1 µM; IC50 ([1]; IC50 nsp13): 1.5 µM; EC50 [4, 14]: 9.9 µM; EC50 [4]: ~10 µM
O=C1CC(=O)c2c(Cl)c(Cl)c(Cl)c(Cl)c21 [TCID] |  | 24 µM | 8.1 µM | 35 µM |  |  |  |  | IC50 [1, 15]: 15 µM; IC50 [1, 16]: 1.9 µM; IC50 ([1]; read-out: IC50 nsp13): 21 µM
CC(C)c1ccccc1Cc1cc(C(=O)Nc2ccc(S(=O)(=O)c3ccccc3C(C)(C)C)cc2)c(O)c(O)c1O [TW-37] |  | 109 µM | 2.8 µM | 27 µM |  |  |  |  | IC50 ([1]; read-out: IC50 nsp13): 39 µM
CC1(C)CCC(CN2CCN(c3ccc(C(=O)NS(=O)(=O)c4ccc(NCC5CCOCC5)c([N+](=O)[O-])c4)c(Oc4cnc5[nH]ccc5c4)c3)CC2)=C(c2ccc(Cl)cc2)C1 [Venetoclax/ABT-199, Venetoclax] |  |  |  |  |  | 25 µM | > 250 µM | No inhibition | IC50 nsp13 [1, 11]: No inhibition
COc1cc(C(=O)NS(=O)(=O)c2ccccc2C)ccc1Cc1cn(C)c2ccc(NC(=O)OC3CCCC3)cc12 [Zafirlukast] | 48 µM |  |  |  |  | 3.6 µM and 6.6 µM | 53 µM and 55 µM |  | IC50 [1, 9]: 50 µM; IC50 [1, 10]: 1.5 µM; IC50 ([1]; IC50 + 0.01% Triton X-100): 22 µM; IC50 ([1]; IC50 -Triton X-100): 7.4 µM; IC50 [2]: 46 µM
